Experimental data from patent US10688142B2, “Methods of treatment using a lipid extract of Passiflora seeds concentrated in its unsaponifiable fraction” (Laboratoires Expanscience, priority 2013, dated 2020).
Marks after values point to notes of the source that are not given here.

Legend:
Assay type in all cases: cell-based
[1] = system: human mature adipocytes; test: Lipolysis: release of glycerol by encapsulated mature adipocytes; conditions: 10 μM forskoline, 4 hours
Method: Human white adipose tissue carries out a fundamental metabolic function by providing the other tissues in the body with energy molecules in the form of fatty acids released by the adipocyte lipolysis process: adipocytes mobilise energy reserves by hydrolysing stored triglycerides to fatty acids and glycerol; the fatty acids thus released into the bloodstream can be used by other tissues for energy purposes. The effect of the Passiflora concentrate on adipocyte lipolysis was evaluated by assay of glycerol released during hydrolysis of the triglycerides stored in human mature adipocytes cultured in 3 dimensions.
Mature adipocytes, derived from biopsies of subcutaneous adipose tissue taken from five donors (normal-weight or overweight) were isolated and encapsulated in peptide gel allowing their survival and biological functionality in culture. The encapsulated mature adipocytes were incubated in the presence of 0.001% or 0.005% Passiflora concentrate, or 10 μM forskoline (standard) for 4 hours.
After incubation, the released glycerol was assayed in the culture medium using an assay kit (Randox), the values obtained were normalised with the amount of DNA evaluated with a kit (Invitrogen).

[2] = system: elastin; test: Expression of dermal matrix components in normal human fibroblasts, real-time quantitative RT-PCR; conditions: TGFβ1 at 5 ng/ml, 24 hours
Method: (§1) Normal human dermal fibroblasts were incubated for 24 hours in 1 FCS culture medium in the presence of 0.005% and 0.05% Passiflora concentrate or TGFβ1 at 5 ng/ml (standard). After incubation, the total RNAs were extracted, assayed and retro-transcribed. The gene expression of collagen I and elastin were analysed by real-time quantitative RT-PCR.

[3] = system: collagen I; test: as above; conditions: TGFβ1 at 5 ng/ml, 24 hours
Method: as §1

Molecule	Stimulation (%) of glycerol release [1]	Release of glycerol ([1]; mean of 5 donors, control 1.00) [Arbitrary unit]	Elastin gene expression, percentage increase relative to non-treated control [2]	Elastin (Relative Quantity) ([2]; control = 1.00)	Collagen I gene expression, percentage increase relative to non-treated control [3]	Collagen I (Relative Quantity) ([3]; control = 1.00)
C=C[C@@]1(C)CC(=O)[C@]2(O)[C@@]3(C)[C@@H](O)CCC(C)(C)[C@@H]3[C@H](O)[C@H](OC(C)=O)[C@@]2(C)O1 [Forskoline, forskoline]	+660% **	6.60				
TGFβ1: TGFβ1 at 5 ng/ml (standard) in the dermal matrix gene expression test			+40% *	1.40	+30% ns^	1.30
